# Assay results taken from article PMC5296862, “Targeting the molecular chaperone SlyD to inhibit bacterial growth with a small molecule” (Scientific Reports, 2017).
# Biological target: T1, SlyD (EcSlyD) (Escherichia coli, UniProt P0A9K9)
# T1 construct: residues 1–165, lacking the unstructured C-terminal tail
# Test: intrinsic fluorescence titration; supported by 2D 1H-15N HSQC NMR titration, in-cell NMR and PPIase inhibition (Ki […])
# Type: binding
# T1 sequence (P0A9K9 1-165): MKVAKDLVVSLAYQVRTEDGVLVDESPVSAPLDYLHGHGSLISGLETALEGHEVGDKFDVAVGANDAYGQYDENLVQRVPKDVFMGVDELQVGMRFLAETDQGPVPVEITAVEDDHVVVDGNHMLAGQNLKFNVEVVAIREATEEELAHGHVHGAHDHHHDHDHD
smiles,measurement,value
[Cu+2].c1ccc(-c2cc(-c3c4ccccc4cc4ccccc34)cc(-c3ccccn3)n2)nc1.c1ccc(-c2cc(-c3c4ccccc4cc4ccccc34)cc(-c3ccccn3)n2)nc1 [Cu2+ complex],Kd,45 µM
